Source: PubChem BioAssay (NCI)
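Compound exposure: 48 hours, 5 concentrations, 96-well plates. TGI: total growth inhibition.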

Columns and labels:
Assay in all cases: NCI tumour cell line growth inhibition, 48 h
[1] = test system: U251 CNS
[2] = test system: SK-OV-3 ovarian
[3] = test system: OVCAR-3 ovarian
[4] = test system: OVCAR-8 ovarian
[5] = test system: T-47D breast
[6] = test system: COLO 205 colon
[7] = test system: UACC-257 melanoma
[8] = test system: SK-MEL-2 melanoma
[9] = test system: MCF7 breast
[10] = test system: RPMI-8226 leukemia
[11] = test system: K-562 leukemia
[12] = test system: SF-539 CNS
[13] = test system: HS 578T breast
[14] = test system: M14 melanoma
[15] = test system: UO-31 renal
[16] = test system: MDA-MB-231 breast
[17] = test system: NCI-H23 lung
[18] = test system: KM12 colon
[19] = test system: 786-0 renal

| SMILES | TGI [1] [µM] | TGI [2] [µM] | TGI [3] [µM] | TGI [4] [µM] | TGI [5] [µM] | TGI [6] [µM] | TGI [7] [µM] | TGI [8] [µM] | TGI [9] [µM] | TGI [10] [µM] | TGI [11] [µM] | TGI [12] [µM] | TGI [13] [µM] | TGI [14] [µM] | TGI [15] [µM] | TGI [16] [µM] | TGI [17] [µM] | TGI [18] [µM] | TGI [19] [µM] |
| --- | --- | --- | --- | --- | --- | --- | --- | --- | --- | --- | --- | --- | --- | --- | --- | --- | --- | --- | --- |
| Cc1nc2c(o1)C(=O)c1ccccc1C2=Nc1ccc(N2CCOCC2)cc1 | 14.4 | > 100 | 5.12 | > 27.7 | 19 | 55.5 | 4.64 | 9.63 | 7.9 | 25.5 | 11.6 | 6 | 12.5 | 3.27 | 10.2 | 8.84 | 7.62 | 66.8 | 61 |
| CC(=O)OCCOc1cc2c([nH]c3ccccc32)c(C)c2cccc1-2 | 3.16 | 18.5 | 4.97 | 7.68 | 5.57 | 3.22 | 3.74 | 4.96 | 15.2 | > 26.4 | > 100 | 3.62 | > 100 | 6.76 | 3.34 | 3.38 | 5.17 | 10.3 | 11 |
| CN(C)/C=N/NC(=O)/C(C#N)=C/N(C)C | > 100 | > 100 | > 100 | > 100 | > 100 | > 100 | > 100 | > 100 | > 100 | > 100 | > 100 | > 100 | > 100 | > 100 | > 100 | > 100 | > 100 | > 100 | > 100 |
| CC(=O)N1CC(=O)N2C(=O)/C(=C/c3ccc(Cl)cc3)N=C12 | > 100 | > 100 | > 100 | > 100 | > 100 | > 100 | > 100 | > 100 | > 100 | > 100 | > 100 | > 100 | > 100 | > 100 | > 100 | > 100 | > 100 | > 100 | > 100 |
| CNC(=O)CN(C)C(=O)CCC(=O)N(C)C | > 100 | > 100 | > 100 | > 100 | > 100 | > 100 | > 100 | > 100 | > 100 | > 100 | > 100 | > 100 | > 100 | > 100 | > 100 | > 100 | > 100 | > 100 | > 100 |
| CC(=O)O[C@H]1CCC2[C@@H]3CCC4Cc5nc6c(nc5C[C@]4(C)C3CC[C@@]21C)CC1CC[C@@H]2C(CC[C@@]3(C)C2CC[C@@H]3C(C)CCCC(C)C)[C@@]1(C)C6 (stereo partly drawn) | > 100 | > 100 | > 100 | > 100 | > 100 | > 100 | > 100 | > 100 | > 100 | > 100 | > 100 | > 100 | > 100 | > 100 | > 100 | > 100 | > 100 | > 100 | > 100 |
| COc1ccc(/C(CC2OC(=O)c3ccccc32)=N\NC(=O)C[N+](C)(C)C)cc1 (stereo not drawn) | 36.3 | > 100 | > 100 | 52.9 | > 100 | 71 | 91.8 | 94.2 | > 100 | 39.6 | 48.4 | > 100 | > 100 | > 100 | 79.6 | > 100 | 47.7 | 52 | 69.3 |
| C1=NCCNCCNCCN=Cc2ccccc2OCc2cccc(n2)COc2ccccc21 | 66.3 | > 100 | > 100 | 84.4 | > 100 | > 100 | > 100 | > 100 | > 100 | > 100 | > 100 | 82.3 | > 100 | > 100 | > 100 | > 100 | > 100 | > 100 | > 100 |
| CC(O)C1(CNc2cc(Cl)nc(N)n2)CC(CCc2ccccc2)C1 (stereo not drawn) | 27.6 | 29.2 | 33.7 | 32 | 44.1 | 28.8 | 19.8 | 31.7 | 0.992 | 43.1 | 86.4 | 32.6 | 38.4 | 33.4 | 24.6 | 22.5 | 19.4 | 27.7 | 39 |
| C/C(=N\NC(=S)N(C)CCN(C)C(=S)N/N=C(\C)c1ccccn1)c1ccccn1 | 18.9 | 20.1 | 9.53 | 7.32 | 19 | 0.912 | 11 | 24.4 | 18.3 | 23.7 | 29.1 | 11.8 | > 100 | > 100 | 15.4 | 13.1 | 28.5 | 14.3 | > 100 |
| Nc1ncnc2c1ncn2[C@H]1CC[C@@H](NO)C1 | > 100 | > 100 | > 100 | > 100 | > 100 | > 100 | > 100 | > 100 | > 100 | > 100 | > 100 | > 100 | > 100 | > 100 | > 100 | > 100 | > 100 | > 100 | > 100 |
| COC(=O)/C=C(/OC)[C@H](C)[C@H](/C=C/c1csc(-c2csc(C(C)C)n2)n1)OC | > 100 | > 100 | > 56.3 | > 100 | > 100 | > 100 | > 100 | > 100 | > 100 | 65.8 | > 100 | > 100 | > 100 | > 100 | > 100 | > 100 | > 100 | > 100 | > 100 |
| Cc1nc(C(N)=S)sc1C(=O)CC(=O)C(=O)Nc1nc2ccccc2[nH]1 | > 100 | > 100 | > 100 | > 100 | > 100 | – | > 100 | > 100 | > 100 | > 100 | > 100 | > 100 | > 100 | > 100 | > 100 | > 100 | > 100 | > 100 | > 100 |
| CCOC(=O)C(NCc1cccc(C(F)(F)F)c1)(NC(=O)CC)C(F)(F)F (stereo not drawn) | > 100 | > 100 | > 100 | > 100 | > 100 | > 100 | > 100 | > 100 | > 100 | > 100 | > 100 | > 100 | > 100 | > 100 | > 100 | > 100 | > 100 | > 100 | > 100 |
| Nc1nc(Nc2ccccc2)sc1C(=O)c1cccs1 | 40.8 | 90.2 | > 28.2 | 78.4 | > 59.3 | 22.7 | 32.5 | 29.6 | 24.2 | 37 | 55.7 | 25.5 | 43.3 | 36.2 | 36.2 | 68.6 | 38.1 | 14.9 | 28.6 |
| O=c1c2cc([N+](=O)[O-])ccc2nc2n1CCCCC2 | > 100 | > 100 | > 100 | > 100 | > 100 | > 100 | > 100 | > 100 | > 100 | > 100 | > 100 | > 100 | > 100 | > 100 | > 100 | > 100 | > 100 | > 100 | > 100 |
| COCn1c(C)c(C)c2c(=O)oc(N(C)C)nc21 | > 100 | > 100 | – | > 100 | > 100 | > 100 | > 100 | > 100 | > 100 | > 100 | > 100 | > 100 | > 100 | > 100 | > 100 | > 100 | > 100 | > 100 | > 100 |
| CCOC(=O)C1=CC(C)(C(=O)OCC)Nc2c(nc(OC)[nH]c2=O)N1 (stereo not drawn) | > 10 | > 10 | > 10 | > 10 | > 10 | > 10 | > 10 | > 10 | > 10 | > 10 | > 10 | > 10 | > 10 | > 10 | > 10 | > 10 | > 10 | > 10 | > 10 |
| CN(C)CCCCN1c2ccccc2Sc2ccc(C(=O)c3ccccc3)cc21 | 7.52 | 27.2 | 9.88 | 7.91 | 13 | 3.13 | 3.76 | 6.59 | 3.05 | > 100 | 3.36 | 6.59 | 9.69 | 3.25 | 10 | 5.2 | 34.2 | 4.99 | 4.83 |
| COC(=O)/C=C(\S/C(=N\n1cc(C(=O)OC)c(C(=O)OC)c1-c1ccc(C)cc1)c1ccc(C)cc1)C(=O)OC | 14.1 | > 57.3 | 12.4 | 34.9 | > 100 | 6.61 | 9.84 | 15 | 23.7 | 20.1 | – | 33 | 62.8 | 11 | 8.48 | 11.7 | 11.5 | 41.9 | 9.69 |
| CCCCCCCCCCCCCCCCOCC(CCl)OP(=O)(O)OP(=O)(O)OCC1OC(n2ccc(N)nc2=O)C(O)C1O (stereo not drawn) | > 100 | > 100 | > 100 | > 100 | > 100 | > 100 | > 100 | > 100 | > 100 | > 100 | > 100 | > 100 | > 100 | > 100 | > 100 | > 100 | > 100 | > 100 | > 100 |
| O=C(c1cc2c(c3ccccc13)NCCN=C2C(F)(F)F)C(F)(F)F | 36.9 | 93.2 | 80.9 | > 100 | > 100 | – | 42.7 | 44.1 | > 100 | 27.4 | 35.4 | 54.9 | 40.6 | 79.6 | > 100 | 51.4 | > 100 | > 100 | 84.8 |
| CC(=N\N=C\c1ccccn1)/C(C)=N/N=C(C)/C(C)=N/N=C/c1ccccn1 | > 100 | > 100 | > 100 | > 100 | > 100 | > 100 | > 100 | > 100 | > 100 | > 100 | – | > 100 | > 100 | > 100 | > 100 | > 100 | > 100 | > 100 | > 100 |
| CCOC(=O)c1ccc(Nc2nc3ccccc3nc2C(=O)OCC)cc1 | > 100 | > 100 | > 100 | > 100 | > 100 | > 100 | – | > 100 | > 100 | > 100 | > 100 | > 100 | > 100 | > 100 | > 100 | > 100 | > 100 | > 100 | > 100 |
| [O-][n+]1onc2c1/C(=N/O)CCC2 | – | > 100 | > 100 | > 100 | > 100 | > 100 | > 100 | > 100 | > 100 | > 100 | > 100 | > 100 | > 100 | > 100 | > 100 | > 100 | > 100 | > 100 | > 100 |
